Measurements from US6239284A, “Aromatic tetracyclic compounds of the retinoid type method for preparing and use” (priority 1997, dated 2001).
Entries after “also recorded” stand apart in the source; their conditions may differ. Like-named read-outs stand apart in the source and are kept apart here.

What was measured:
T-47D cells = test: Anti-proliferation effect, estrogen-induced growth of T-47D cells; type: cell-based, human
Procedure: (§1) So as to test the anti-proliferation effect of the retinoids, growth experiments under oestrogenic conditions were carried out on cells MCF-7 and T-47D. These are the human estrogen-dependent mammary cancer cells which express the receptor to RE estrogens. The effect of the molecules is evaluated after 7 days of culture in oestrogenic conditions (estradiol 10^-9 M) by dosing the cellular DNA. The cells are distributed in 24 well plates at a density of 2×10^4 cells per well. The tests with the different retinoids are carried out in triplicate and the culture medium is changed after 4 days of growth.
(§2) The effect of the retinoids on the growth of MCF-7 and T-47D cells is evaluated after 7 days of culture in the presence of 10^-9 M estradiol by dosing the cellular DNA.

MCF-7 cells = test: Anti-proliferation effect, estrogen-induced growth of MCF-7 cells; type: cell-based, human
Procedure: as §1, §2

AP-1 = test: Anti-AP-1 effect, MTLN cellular lineage (MCF-7 with (TRE)3-tk-Luc) activated by TPA; type: cell-based, human; settings: for Anti-AP-1 effect, Inhibition (%): 10^-7 M TPA, range of several experiments; for inhibition at 1 µM: Homo sapiens, AP1, read-out: Inhibition of AP-1 route (MTLN)
Procedure: The anti-factor AP-1 transrepressor effect of retinoids is determined using the MTLN lineage, coming from MCF-7 cells transfected in a stable fashion by a vector p(TRE)3 -tk-Luc which places the expression of the gene of luciferase under the control of […]. TPA activates the AP-1 complex formed from proteins of the family of nuclear proto-oncogenes (c-Jun and c-Fos). […] The experiments ware made with the MTLN cells activated by 10^-7 M TPA.
The effect of the compounds on the MTLN cells activated by 10^-7 M TPA is expressed as a percentage. […] The inhibitive properties of the products are calculated after deduction of the base activity of the cells. The percentages reported correspond to a range of inhibitions determined from several experiments.

ERE = test: Anti-estrogenic effect, MELN cellular lineage (MCF-7 with ERE-βGlob-Luc) activated by estradiol; type: cell-based, human
Procedure: MCF-7 cells express RARα,γ and RXRα. The transfection of MCF-7 cells by an estrogen-dependent gene (ERE-βGlob-Luc) has permitted the establishment of the MELN cellular lineage, used to determine the anti-oestrogenic activity of the retinoids. These cells contain the gene of the luciferase under the transcriptional control of the promoter of the βGlobine and of the response element ERE isolated from the gene of chicken vitelogenine A2. The experiments are carried out with MELN cells activated by 10^-9 M estradiol. The level of base activity of the MELN cells is obtained with the anti-estrogen 1 μM 4-OH-tamoxifen (hydroxytamoxifen).
The effect of the products tested on the cells activated by 10^-9 M estradiol is expressed as a percentage, the level of base activity being deducted.

RARα [1] = test: Transactivation of chimerical receptor RARα-ERcassette, transient transfection of HeLa cells; type: cell-based; settings: for RAR-ERcassette RARα transactivation (%): 100% = TTNPB 10^-8 M
Description: (§3) The HeLa cells are co-transfected by a plasmid which codes for a retinoic receptor in which the C domain of bonding to the DNA is substituted by that of the receptor to RE estrogens, and a plasmid which places the expression of the luciferase under the control of an ERE (Element of Response to Estrogens). The expressed chimerical receptors are designated as RARα-ERcassette, RARβ-ERcassette, RARγ-ERcassette and RXRα-ERcassette. The A, B, D, E and F regions of the natural receptor are preserved as well as the transcriptional co-operation between the activation domains AF-1 and AF-2. These transitory transfection experiments follow the method of co-precipitation to calcium phosphate. The HeLa cells are co-transfected by […] of plasmid coding for the chimerical receptor, […] of reporter plasmid and […] of expression vector CMV-β-galactosidase used as an internal control of transfection. 24 hours after the transfection, the cells are incubated for 16 hours with the different effectors.
(§4) In this type of chimerical receptor, the C domain of bonding to the DNA of RAR is substituted by that of the receptor to the RE estrogens. The protein obtained is close to the natural RAR receptor and preserves the transcriptional properties of the AF-1 and AF-2 domains. It modulates the transcription by means of an ERE. This RAR-ERcassette model allows one to observe a transcriptional response to a more physiological ligand.
(§5) The study of the selectivity of the compounds was carried out with the RAR-ERcassette chimerical receptors model.
(§6) On one and the same line in the Table, the cis (Z) compound represents the isomeric structure of the trans (E) compound.

RARβ [2] = test: Transactivation of chimerical receptor RARβ-ERcassette, transient transfection of HeLa cells; type: cell-based; settings: for RAR-ERcassette RARβ transactivation (%): 100% = TTNPB 10^-8 M
Description: as §3, §4, §5, §6

RARγ [3] = test: Transactivation of chimerical receptor RARγ-ERcassette, transient transfection of HeLa cells; type: cell-based; settings: 100% = TTNPB 10^-8 M
Description: as §3, §4, §5, §6

RARE [4] = test: HRLN transactivation (stably transfected HeLa, RARE3-tk-Luc, endogenic receptors); type: cell-based
Description: (§7) The cellular lineages HRLN and HRL+N allow one to study the activation of an RARE by endogenic receptors using ligands at physiological concentrations. These lineages derive from HeLa cells transfected in a stable fashion by a reporter gene which places the expression of the gene of the luciferase under the control of a nuclear response element RARE (RARE3 -tk-Luc). The HeLa cells express all the known receptors of the retinoic acid (RARα,β,γ and RXRα,β,γ) with a predominance of RARα and RXRα. The response element RARE used for the HRLN cells corresponds to the sequence of the natural gene of the RARβ receptor (GGTTCAnnnnnAGTTCA). The HRL+N cells comprise the sequence GAGTGAnnnnnCGGTGA.

RARE [5] = test: HRL+N transactivation (stably transfected HeLa, RARE reporter, endogenic receptors); type: cell-based; settings: for activation at 1 µM: Table 12
Description: as §7
The HRL+N lineage allows one to visualize a co-activation of the RAR and RXR receptors at the level of the RAR-RXR hetero-dimer.

RAR [6] = test: RAR-ERcassette model, specificity profile (transient transfection of HeLa cells); type: cell-based
Description: as §3, §4, §5

RAR [7] = test: GAL-RAR model, specificity profile (transient transfection of HeLa cells)
Description: (§8) Studies of the transactivational specificity of the retinoids have been carried out by transitory transfection of HeLa cells. Two types of chimerical receptors can then be expressed by the cells. […] The C region (domain of bonding to the DNA) and the A and B regions (AF-1 activation domain) are suppressed.
(§9) These chimerical receptors activated by an agonist specifically stimulate the transcription of the gene of the luciferase present in a co-transfected plasmid ((17M)5-βG-Luc) where 17M is the response element of Gal4.

RARα [8] = test: Transactivation of chimerical receptor GAL4-RARα, transient transfection of HeLa cells (luciferase)
Description: as §8, §9

RARβ [9] = test: Transactivation of chimerical receptor GAL4-RARβ, transient transfection of HeLa cells (luciferase)
Description: as §8, §9

RARγ [10] = test: Transactivation of chimerical receptor GAL4-RARγ, transient transfection of HeLa cells (luciferase)
Description: as §8, §9

[11] = Homo sapiens, -6 log M (10^-6 M), 10^-9 M estradiol, read-out: Anti-oestrogenic effect, Inhibition (%)
[12] = Homo sapiens, read-out: Anti-oestrogenic effect, Inhibition (%)

CC1(C)CCC(C)(C)c2cc(C(=O)Nc3ccc(C(=O)O)cc3)ccc21 [Am580, 4-[(5,6,7,8-tetrahydro-5,5,8,8-tetramethyl-2-naphthalenyl)carboxamido]benzoic acid]
inhibition at 1 µM (T-47D cells; Homo sapiens, T47D, 168 h, at 1 μM, 7 days, estradiol 10^-9 M, read-out: T-47D percentage inhibition of growth): 74%
inhibition at 1 µM (MCF-7 cells; Homo sapiens, MCF7, 168 h, at 1 μM, 7 days, estradiol 10^-9 M, read-out: MCF-7 percentage inhibition of growth): 67%
Anti-AP-1 effect, Inhibition (%) (AP-1; -7 log M): 41-48%
Anti-AP-1 effect, Inhibition (%) (AP-1; -8 log M): 40-46%
inhibition at 0.01 µM (ERE; Homo sapiens, -8 log M, 10^-9 M estradiol, read-out: Anti-oestrogenic effect, Inhibition (%)): 36 to 51%

Cc1cc2c(cc1/C=C1/CCc3cc(-c4nnn[nH]4)ccc31)C(C)(C)CCC2(C)C [CB02981, (Z) 5-[1-[2-(5,6,7,8-tetrahydro-3,5,5,8,8-pentamethyl)naphthalenylmethylene]-2,3-dihydro-1H-indenyl]-1H-tetrazole]
RAR-ERcassette RARα transactivation (%) (RARα [1]; -6 log M (1 μM)): 4%
RAR-ERcassette RARβ transactivation (%) (RARβ [2]; -6 log M (1 μM)): 7%
RAR-ERcassette RARγ transactivation (%) (RARγ [3]; -6 log M (1 μM)): 0%
Effect on growth of T-47D cells in words (T-47D cells; estrogenic conditions): no effect whatsoever
Effect on growth of MCF-7 cells in words (MCF-7 cells; estrogenic conditions): no effect whatsoever
HRLN transactivation in words (RARE [4]): inactive
activation at 1 µM (RARE [4]; Homo sapiens, HeLa): 0%
HRL+N transactivation in words (RARE [5]): does not cause transactivation mediated by RAR and RXR
activation at 1 µM (RARE [5]; Homo sapiens, HeLa): 0%
Anti-AP-1 effect (MTLN) in words (AP-1): in association with a RXR agonist, an additive effect of the inhibiting effects of the two molecules is observed; also recorded: dissociating compound and causes inhibition of the AP-1 ring
inhibition at 1 µM (AP-1): ~20%
inhibition at 1 µM (ERE; [11]): 0%
RAR-ERcassette profile in words (RAR [6]): inactive

Cc1cc2c(cc1/C=C1/CCc3cc(C(=O)O)ccc31)C(C)(C)CCC2(C)C [CB75403, (Z) 1-[2-(5,6,7,8-tetrahydro-3,5,5,8,8-pentamethyl)naphthalenylmethylene]-2,3-dihydro-1H-indene-5-carboxylic acid]
RARα transactivation (RAR-ERcassette) in words (RARα [1]): inactive on RARα
RAR-ERcassette RARα transactivation (%) (RARα [1]; -6 log M (1 μM)): 12%
RAR-ERcassette RARα transactivation (%) (RARα [1]; -7 log M): 3%
RARβ transactivation (RAR-ERcassette) in words (RARβ [2]): same level of transactivation through the intermediary of RARβ at 0.1 μM and at 1 μM and also at 3 μM
RAR-ERcassette RARβ transactivation (%) (RARβ [2]; -6 log M (1 μM)): 65%
RAR-ERcassette RARβ transactivation (%) (RARβ [2]; -7 log M): 68%
RAR-ERcassette RARγ transactivation (%) (RARγ [3]; -6 log M (1 μM)): 68%
RAR-ERcassette RARγ transactivation (%) (RARγ [3]; -7 log M): 40%
activation at 1 µM (RARE [5]; Homo sapiens, HeLa): 18%
inhibition at 1 µM (AP-1): ~30%
inhibition at 1 µM (ERE; [11]): 0%
RAR-ERcassette profile in words (RAR [6]): RARβ,γ specificity; also recorded: RARβ,γ selectivity

Cc1cc2c(cc1C(=O)c1ccc(C(=O)O)cc1)C(C)(C)CCC2(C)C [LGD-CB14499]
RARβ transactivation (RAR-ERcassette) in words (RARβ [2]): transcriptional power appears higher notably through the RARβ-ERcassette
Emax (RARE [4]; Homo sapiens, HeLa, read-out: HRLN transactivation E max %): 30%
Emax at 1 µM (RARE [5]; Homo sapiens, HeLa): 94%
Anti-AP-1 effect (MTLN) in words (AP-1): causes an inhibition of the AP-1 route
Anti-AP-1 effect, Inhibition (%) (AP-1; -7 log M): 17-30%
Anti-estrogenic effect (MELN) in words (ERE): inactive
inhibition at 0.1 µM (ERE; [12]): 0%
inhibition at 1 µM (ERE; [12]): 0%
GAL-RAR agonist profile in words (RAR [7]): do not allow one to observe a good transactivation mediated by RAR
GAL4-RARα activity, % of activity measured for 10^-8 M TTNPB (RARα [8]; Concentration -6 (log M)): 17%
GAL4-RARα activity, % of activity measured for 10^-8 M TTNPB (RARα [8]; Concentration -7 (log M)): 4%
GAL4-RARα activity, % of activity measured for 10^-8 M TTNPB (RARα [8]; Concentration -8 (log M)): 1%
GAL4-RARβ activity, % of activity measured for 10^-8 M TTNPB (RARβ [9]; Concentration -6 (log M)): 9%
GAL4-RARβ activity, % of activity measured for 10^-8 M TTNPB (RARβ [9]; Concentration -7 (log M)): 1%
GAL4-RARβ activity, % of activity measured for 10^-8 M TTNPB (RARβ [9]; Concentration -8 (log M)): 0%
GAL4-RARγ activity, % of activity measured for 10^-8 M TTNPB (RARγ [10]; Concentration -6 (log M)): 13%
GAL4-RARγ activity, % of activity measured for 10^-8 M TTNPB (RARγ [10]; Concentration -7 (log M)): 0%
GAL4-RARγ activity, % of activity measured for 10^-8 M TTNPB (RARγ [10]; Concentration -8 (log M)): 0%

C/C(=C\c1ccc(C(=O)O)cc1)c1ccc2c(c1)C(C)(C)CCC2(C)C [TTNPB]
IC50 (T-47D cells; Homo sapiens, T47D, 168 h, read-out: T-47D IC50 (growth inhibition by 50%)): 3.3 ± 1.1 nM
IC50 (MCF-7 cells; Homo sapiens, MCF7, 168 h, read-out: MCF-7 IC50 (growth inhibition by 50%)): 0.35 ± 0.07 nM
EC50 (RARE [4]; Homo sapiens, HeLa, read-out: HRLN transactivation EC50): 0.55 ± 0.72 nM
Anti-AP-1 effect, Inhibition (%) (AP-1; -7 log M): 29-54%
Anti-AP-1 effect, Inhibition (%) (AP-1; -8 log M): 26-53%
inhibition at 0.01 µM (ERE; [12]): 30 to 41%
Inhibition in MELN (ERE; RAR selective molecules, 10^-9 M estradiol): ~40%
